This is an account of results in patent publication US20130012709A1, “NOVEL INHIBITORS OF STEAROYL-CoA-DESATURASE-1 AND THEIR USES” (CENTRE NATIONAL DE LA RECHERCHE SCIENTIFIQUE, priority 2009, published 2013).

The target of assay [1] is T1, SCD-1 (Homo sapiens, UniProt O00767).
T1 construct: endogenous in cells; host or cells: LNCaP, C4-2, PNT2 cells
T1 sequence (O00767 1-359): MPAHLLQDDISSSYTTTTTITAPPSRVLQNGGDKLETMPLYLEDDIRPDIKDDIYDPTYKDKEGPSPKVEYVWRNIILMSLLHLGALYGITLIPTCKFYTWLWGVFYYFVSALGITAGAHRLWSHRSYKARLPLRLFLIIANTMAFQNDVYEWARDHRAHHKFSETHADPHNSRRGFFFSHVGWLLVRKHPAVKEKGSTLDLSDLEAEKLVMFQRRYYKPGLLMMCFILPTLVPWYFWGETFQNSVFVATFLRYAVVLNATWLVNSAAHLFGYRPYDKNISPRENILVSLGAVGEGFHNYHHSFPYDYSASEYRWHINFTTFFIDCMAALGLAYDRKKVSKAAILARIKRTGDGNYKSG
Briefly: Determination of SCD activity, [14C] palmitic to palmitoleic acid conversion in cells. It counts as cell-based. To be noted: all three cell lines (LNCaP, C4-2, PNT2), 25 μM. The procedure:
Subconfluent LNCaP, C4-2, PNT2 of Ras SV40 MEFs cells grown in 6-wells plate were incubated with the tested inhibitor at 25 μM for 2 h in serum and fatty acid-free DMEM media supplemented 0.2% BSA. In this environment, the cells are solely dependent on endogenous fatty acid synthesis for production of storage, structural and signaling lipids. Trace amount of [^14C] palmitic acid were then added to the culture (0.5 μCi/well), and cells were incubated for 6 more hours. At the end of the incubation, total cell lipids were extracted and saponified, then released fatty acids were esterified with boron trifluoride in methanol for 90 min at 100° C. […] Air-dried plates were scanned on a Phosphorlmager and fatty acid spots on TLC were analysed with Phosphorlmager software. SCD activity was expressed as the ratio of palmitoleic on palmitic methyl ester acids and normalized to cellular DNA content.
The efficacy of the tested compound to inhibit SCD-1 activity has been evaluated by measuring the conversion of exogenous [^14C] saturated palmitic acid (16:0) to monounsaturated palmitoleic acid (16:1n-7). Moreover, the effects of inhibition of SCD-1 activity on lipid synthesis and proliferation in prostate cancer cell lines were analysed.

The test system of assay [2] is C4-2 cells. Briefly: Proliferation assay (cell counting). It counts as cell-based, human. To be noted: C4-2, maximal dose used. The procedure:
(§1) At 24 h, 48 h, 72 h and 96 h following addition of increasing concentrations of the tested compound in DMSO or DMSO alone, cells were trypsinized, pelleted by centrifugation at 1200 rpm for 5 min, resuspended in 500 μl of culture medium and counted in an hemocytometer.

For assay [3], the system named is LNCaP cells. Kind of assay: Proliferation assay (cell counting). It is filed as cell-based, human. To be noted: maximal dose used. How it is done:
as §1

For assay [4], the system named is PNT2 cells. Kind of assay: Proliferation assay (cell counting). It counts as cell-based, human. The following applies: non-cancerous PNT2, even at a maximal dose. The procedure: as §1
Assay [5] relates to β-catenin-Tcf4 complex in C4-2 cells. Kind of assay: TCF/LEF-1 reporter (pTOP-FLASH) luciferase assay. It is filed as cell-based, human. The procedure:
(§2) The transcriptional activity of the β-catenin-Tcf4 complex was analysed by performing transient transfections with 0.25 μg TCF/LEF-1 reporter (pTOP-FLASH) or control vector (pFOP-FLASH).
(§3) Luciferase activities in cell lysates were normalized relative to the β-galactosidase activity to correct for differences in transfection efficiency.

The test system of assay [6] is β-catenin-Tcf4 complex in LNCaP cells. Briefly: TCF/LEF-1 reporter (pTOP-FLASH) luciferase assay. It is filed as cell-based, human. How it is done:
as §2, §3

The subject of assay [7] is C4-2 cells. Briefly: Flow cytometry analysis of cell cycle. The following applies: CaP cells (C4-2); with a decrease in the S phase. It is filed as cell-based, human. How it is done: (§4) Cells were then rinsed in PBS, pelleted at 400 g for 5 min and maintained on ice for 20 min before resuspension in a […] propidium iodide (Sigma) solution. Cells were kept overnight at 4° C. and the percentages of cells in G1, S and G2-M phases of the cell cycle were measured with a Coulter Epics XL™ flow cytometer (Becton Dickinson) using 488-nm laser excitation. For apoptosis experiment, MEFs were treated with the tested compound at 25 μM for 24 h, then rinced in PBS, pelleted at 400 g for 5 min and stained with annexinV-FITC (Roche Diagnostics, Meylan, France) for 15 min at 4° C. The percentage of annexin positive cells was immediately analysed using 488-nm laser excitation.

The test system of assay [8] is LNCaP cells. Briefly: Flow cytometry analysis of cell cycle. It is filed as cell-based, human. The following applies: CaP cells (LNCaP); with a decrease in the S phase. The procedure: as §4
The subject of assay [9] is C4-2 cells. Kind of assay: Measurement of de novo fatty acid synthesis. It is filed as cell-based. The following applies: Homo sapiens, C4-2, 25 μM. How it is done:
(§5) The tested inhibitor was added overnight at a final concentration of 25 μM to subconfluent cultures of cells grown in 6-wells plate in serum and fatty acid-free DMEM media supplemented with 0.2% BSA. Cultures were then labeled in triplicate with 1.0 μCi of [U—^14C]-palmitate or -stearate for 6 h, and total lipids were folch extracted with chloroform/methanol. Labeled lipids were subjected to TLC in hexane/diethyl ether/acetic acid 90:10:1 (V/V), to separate cholesterol ester, triglycerides and phospholipids. Standards were run for each of the lipid classes. After chromatography, labeled lipid classes were quantified by scintillation counting and radioactivity was normalized to DNA content.

The subject of assay [10] is LNCaP cells. Kind of assay: Measurement of de novo fatty acid synthesis. To be noted: Homo sapiens. It counts as cell-based. How it is done: as §5
The test system of assay [11] is SCDs. Briefly: Determination of SCD activity in transformed MEFs. It counts as cell-based, mouse. The following applies: 25 μM. The procedure: Subconfluent LNCaP, C4-2, PNT2 of Ras SV40 MEFs cells grown in 6-wells plate were incubated with the tested inhibitor at 25 μM for 2 h in serum and fatty acid-free DMEM media supplemented 0.2% BSA. In this environment, the cells are solely dependent on endogenous fatty acid synthesis for production of storage, structural and signaling lipids. Trace amount of [^14C] palmitic acid were then added to the culture (0.5 μCi/well), and cells were incubated for 6 more hours. At the end of the incubation, total cell lipids were extracted and saponified, then released fatty acids were esterified with boron trifluoride in methanol for 90 min at 100° C. The derived methyl esters were separated by argentation TLC (Thermo Fisher Scientific) following the procedure of Wilson and Sargen, using a solvent phase consisting of hexane:ethyl ether (90:10, by vol) (35). Pure stearic and oleic methyl ester acids were run in parallel to the samples. Air-dried plates were scanned on a Phosphorlmager and fatty acid spots on TLC were analysed with Phosphorlmager software. SCD activity was expressed as the ratio of palmitoleic on palmitic methyl ester acids and normalized to cellular DNA content.

[12] abbreviates: read-out: inhibition of [U-14C]-palmitate incorporation into phospholipids.
[13] abbreviates: read-out: inhibition of [U-14C]-palmitate incorporation into sterol esters.
The mark [14] stands for this setting: read-out: inhibition of [U-14C]-palmitate incorporation into triglycerides.
Where [15] appears, read: read-out: inhibition of [U-14C]-stearate incorporation into phospholipids.
[16] abbreviates: read-out: inhibition of [U-14C]-stearate incorporation into sterol esters.
[17] abbreviates: read-out: inhibition of [U-14C]-stearate incorporation into triglycerides.

The structures appear in SMILES notation. Read-outs that look alike come from different tables or passages of the source.

Consider `COc1ccc(Br)c(C(=O)N2CCN(c3ccc(C(=O)NCCCc4ccccc4)cn3)CC2)c1` [BZ36], for which, in assay [1], the “labelled monounsaturated palmitoleic acid vs control cells” value is recorded as “marked reduction”. Besides, the “inhibition of cell proliferation” value in assay [2] and in assay [3] was 100% each time. Moreover, in assay [4], the effect in proliferation entry is “no effect”. The “activity of a β-cat reporter” value in assay [5] and in assay [6] was “decreased activity” each time. For the same molecule, the cell cycle distribution result in [7] and in assay [8] was “accumulation of cells in the G0/G1 phase” throughout. In addition, the inhibition at 25 µM in assay [9] (setting [12]) came to 41%; in assay [9] (setting [13]), 33%; in [9] (setting [14]), 24%; in assay [9] (setting [15]) it was 49%; in [9] (setting [16]), 70%; in assay [9] (setting [17]) it was 19%. The inhibition at 25 µM in assay [10] (setting [12]) worked out at 58%; in [10] (setting [13]) it was 39%; in assay [10] (setting [14]), 27%; in assay [10] (setting [15]), 81%; in [10] (setting [16]), 77%; in assay [10] (setting [17]) it was 78%. Moreover, the “[14C]-palmitoleic to palmitic methyl ester acids ratio” value in [11] was “decreased lipogenesis”.
